Measured values taken from US20100215759A1 (priority 2009, published 2010).

Key:
CB1 receptors = target: T1, CB1 receptors (Mus musculus, UniProt P47746); assay: biochemical; assay type: binding
T1 construct: the complete brain (excluding the cerebellum) and the spleen were quickly dissected and kept in ice; from tissue; host or cells: mouse brain (excluding cerebellum), membrane preparation
Experimental: (§1) The affinity of the synthesized compounds towards the CB1 and CB2 cannabinoidergic receptors was evaluated in vitro by radioreceptor binding studies using the method reported hereinunder.
(§2) The technique of the receptor binding allows to establish if, and with which affinity and specificity, a specific compound binds to a particular receptor. To evaluate the affinity of a specific compound to a particular receptor it is necessary to challenge in a particular tissue preparation wherein those specific receptors are present the compound to be tested with a radioactive labelled compound whose affinity for the same receptors is known. […] The amount of radioactivity present in the receptor-compound complex allows furthermore to estimate with great accuracy the amount of compound bound to the receptor. By said method it is therefore possible to establish quickly the affinity of a new compound towards a specific receptor and thus to determine its pharmacological activity. With the same experimental protocol it is possible to evaluate the affinity of the compound towards other receptors and thus establish its specificity degree toward said other receptors.
(§3) The food and water were ad libitum.
(§4) The procedure adopted, based on the use of the compound [^3H]-CP-55,940 (New England Nuclear, Boston, Mass., USA), requires the use of the mouse brain as biological tissue for the evaluation of the affinity towards the CB1 receptors and of the mouse spleen for the affinity assay for the CB2 receptors.
(§5) The animals were sacrificed by cervical dislocation and the complete brain (excluding the cerebellum) and the spleen were quickly dissected and kept in ice.
(§6) The tissue was homogenized in 15 volumes (weight/volume) of TME buffer (50 Mm Tris, 1 mM EDTA and 3 mM MgCl2, pH 7.4) by an Ultra-Turrax and subsequently centrifuged for 10 minutes at 1086×g in a centrifuge refrigerated at 4° C. The recovered supernatant was centrifuged at 45,000×g for 30 minutes at 4° C. by using a Beckman SW41 rotor and the obtained pellet was resuspended in 50 volumes of TME.
(§7) The thus obtained membranes (50-80 μg of proteins) were incubated in the presence of 1 nM of [^3H]-CP55.940 for 1 hour at 30° C. in a final volume of 0.5 ml of TME buffer containing 5 mg/ml of bovine serum albumin (BSA). The non specific binding was measured in the presence of CP55.940 at a 1 μM concentration.
(§8) All the experiments were carried out in polypropylene test tubes pretreated with Sigma-Cote (Sigma Chemical Co. Ltd., Poole, UK) for reducing non specific binding.
(§9) In order to determine the competitive inhibition binding curves, eight different concentrations of each compound were used.
(§10) Incubation was stopped by addition of TME buffer (at 4° C.) containing 5 mg/ml of BSA, and subsequent filtration under vacuum by Whatman GFC filters pretreated with 0.5% of polyethylamine (PEI) and by using a filtering device (Brandell, Gaithersburg, Md., USA). The filters were washed 3 times with […] of Tris HCl buffer (pH 7.4, 4° C.) containing 1 mg/ml of BSA and separately placed in plastic vials containing 4 ml of scintillating liquid (Ultima Gold MV, Packard).
(§11) The radioactivity present in the filters was determined by a scintillator spectrophotometer (Tricarb® 2100, Packard, Meridien, USA).
(§12) Protein determination was carried out by the Bradford method by using the protocol and the reactants supplied by Bio-Rad (Milano, Italy).

CB2 receptors = target: T2, CB2 receptors (Mus musculus, UniProt P47936); assay: biochemical; assay type: binding
T2 construct: the complete brain (excluding the cerebellum) and the spleen were quickly dissected and kept in ice; from tissue; host or cells: mouse spleen, membrane preparation
Experimental: as §1, §2, §3, §4, §5, §6, §7, §8, §9, §10, §11, §12

old DBA/2J mice = assay: Reduction of intraocular pressure (IOP) after application to the eye, TONOLab tonometer; assay type: in vivo; conditions: for Intraocular Pressure Decrease: versus basal IOP; for Reduction of intraocular pressure: dose 100 μg
Description: The main risk factor in the glaucoma is represented by the high intraocular pressure (IOP). See for instance: Libby R. T. et al., Vis Neurosci. 2005 Sep.-Oct., 22(5):637-48 and Tomida I. et al., Br. J. Opthalmol. 2004 May, 88(5):708-13.
By using the animal model of old DBA/2J mice (see above) it has been evaluated the efficacy of the compound obtained in example 3.1 in reducing the IOP. As said, this compound has a good affinity towards the CB1 receptors in vitro (example 4) and a CB1 agonist action in vivo (example 5). The intraocular pressure has been determined by a TONOLab Tonometer (Tiolat Oy), as reported by M. E. Pease et al. in J. Glaucoma, 2006 December, 15(6):512-519. The compound was dispersed in the commercial emulsion Tocrisolve™, (Tocris), at a concentration of […] and applied to the eye of old DBA/2J mice (8-10 month age; basal IOP comprised between 19.0 and 22.5 mmHg). The applied emulsion volumes were such that the compound doses resulted, respectively, of 100 μg or 50 μg. WIN 55212-2 was dispersed in Tocrisolve™at the concentration of 5 mg/ml and was the reference cannabinoidergic compound. The determination of the ocular pressure was carried out every 30 minutes up to two hours starting from the administration. The obtained results (average of 6 measurements at each time for experimental groups of 8-10 animals for group/dose) are reported in Table 3. IOP decrease was expressed in percent with respect to the basal value.

[1] = test system: mouse deferent vessel (vas deferens); assay: Ex-vivo model: electrically induced contractions of the isolated deferent vessel (vas deferens); design: species or system albino CD1 mice; conditions: for Activity compared with the compounds of the invention: FIG. 2; for Inhibition of the contractions induced by the electric stimulus: concentrations lower than or equal to 1×10^−6 M
Description: The use of the isolated deferent vessel organ, as a highly sensitive basic system in an ex-vivo model for evaluating the activity of agonist CB1 compounds, has been described by Pertwee et al. in Br. J. Pharmacol., 105:980-4, 1992. This model has been used also to evaluate the properties of antagonist CB1 compounds and to distinguish antagonist CB1 derivatives from inverse agonist CB1 compounds (Rinaldi-Carmona et al., FEBS Lett., 350:240-4, 1994; Pertwee et al., Eur. J. Pharmacol., 456:99-106, 2002). […] This effect is correlated to the action on the prejunctional neuronal CB1 receptors with the consequent release inhibition, induced by electric stimuli, of contractile neurotransmitters (noradrenaline and ATP) (Schlicker and Kathmann, Trends Pharmacol. Sci., 22:565-72, 2001). The inhibition of the contractions induced by the electric stimulus on the deferent vessel in the presence of agonist (or partial agonist) CB1 compounds are expressed as % of contraction inhibition. Said % contraction inhibition is calculated by the ratio between the contraction amplitude determined in the presence of a given concentration of the compound and that detected in its absence (basal value). The curve of the “% of contraction inhibition” as a function of the logarithm of the concentration of agonist (or partial agonist) CB1 compounds, is sigmoidal. The use of the model for the evaluation of antagonist CB1 compounds is based on the evaluation of their efficacy in inhibiting the action of the deferent vessel of agonist (or partial agonist) CB1 compounds. The inhibition is expressed by a shifting towards the right of the curves % of inhibition of contractions/logarithm of the concentration of the agonist CB1 compound, with increasing the concentration of the antagonist CB1 compound.
As reported in the literature, the experimentation has been carried out by using albino CD1 mice weighing 30-40 grams. The mice deferent vessel was recovered and transferred into an instrument for separated organs supplied by the Firm Ugo Basile (Comerio, Italy). The initial tension was of 0.5 g. The procedure adopted is reported in Pertwee et al. in Br. J. Pharmacol., 110:1483-1490, 1993. In particular the procedure and instruments as described by S. Ruiu et al. in J.P.E.T., Vol. 306, 2003, 363-370, have been used.
In a subsequent experiment it was shown that the compound activity was antagonized by the antagonist CB1 compound N-piperidinyl-[8-chloro-1-(2,4-dichlorophenyl)-1,4,5,6-tetrahydrobenzo[6,7]cyclohepta[1,2-c]pyrazol-3-carboxamide], described by S. Ruiu et al. in J.P.E.T., Vol. 306, 2003, 363-370. The experiment was carried out by adding the antagonist (concentration in bath 1 nM) 20 minutes before the first addition of the compound of the invention.

patients = conditions: cited from earlier work
[2] = 50 μg to the eye in Tocrisolve, 30 minutes
[3] = 50 μg to the eye in Tocrisolve, 60 minutes
[4] = 50 μg to the eye in Tocrisolve, 90 minutes
[5] = 50 μg to the eye in Tocrisolve, 120 minutes
[6] = 100 μg to the eye in Tocrisolve, 30 minutes
[7] = 100 μg to the eye in Tocrisolve, 60 minutes
[8] = 100 μg to the eye in Tocrisolve, 90 minutes
[9] = 100 μg to the eye in Tocrisolve, 120 minutes

T1 sequence (P47746 whole entry): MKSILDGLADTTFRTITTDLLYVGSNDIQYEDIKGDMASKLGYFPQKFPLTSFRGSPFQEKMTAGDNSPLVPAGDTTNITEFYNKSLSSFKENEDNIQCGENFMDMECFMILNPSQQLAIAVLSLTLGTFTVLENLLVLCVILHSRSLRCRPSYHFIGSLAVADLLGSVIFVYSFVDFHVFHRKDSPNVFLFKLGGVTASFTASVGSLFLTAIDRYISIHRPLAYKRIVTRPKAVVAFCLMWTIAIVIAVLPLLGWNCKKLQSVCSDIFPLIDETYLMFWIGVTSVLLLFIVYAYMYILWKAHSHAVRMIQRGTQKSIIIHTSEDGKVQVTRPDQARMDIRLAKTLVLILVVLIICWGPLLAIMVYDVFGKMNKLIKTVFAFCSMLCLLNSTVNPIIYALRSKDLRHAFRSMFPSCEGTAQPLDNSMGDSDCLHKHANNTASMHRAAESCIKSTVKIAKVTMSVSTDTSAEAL
T2 sequence (P47936 whole entry): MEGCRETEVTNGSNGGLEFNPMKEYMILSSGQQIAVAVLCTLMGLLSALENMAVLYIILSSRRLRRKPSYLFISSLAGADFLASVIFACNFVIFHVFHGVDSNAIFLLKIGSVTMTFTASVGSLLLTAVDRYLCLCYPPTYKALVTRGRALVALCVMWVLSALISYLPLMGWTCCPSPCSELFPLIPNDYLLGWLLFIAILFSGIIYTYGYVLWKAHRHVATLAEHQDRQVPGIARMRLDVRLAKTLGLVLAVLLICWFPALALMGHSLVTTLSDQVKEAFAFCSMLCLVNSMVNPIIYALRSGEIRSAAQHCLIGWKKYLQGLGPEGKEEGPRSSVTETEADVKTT

## Cc1ccc(Cn2nc(C(=O)NC3CC(C)CCC3C(C)C)c3c2-c2sc(C)cc2C3)cc1 (centres unmarked) [Compound (XC), N-menthyl-6-methyl-1-(4′-methylbenzyl)-1,4-dihydro-thieno[3′,2′:4,5]cyclopenta[1,2-c]pyrazol-3-carboxamide]
CB1 receptors
  Ki: 33 ± 8.2 nM
CB2 receptors
  Ki: 2.5 ± 0.3 nM
Old DBA/2J mice; [2]
  Intraocular Pressure Decrease: 2.9%
Old DBA/2J mice; [3]
  Intraocular Pressure Decrease: 2.2%
Old DBA/2J mice; [4]
  Intraocular Pressure Decrease: 0.8%
Old DBA/2J mice; [5]
  Intraocular Pressure Decrease: 1.5%
Old DBA/2J mice; [6]
  Intraocular Pressure Decrease: 22.2%
Old DBA/2J mice; [7]
  Intraocular Pressure Decrease: 22.4%
Old DBA/2J mice; [8]
  Intraocular Pressure Decrease: 25.0%
Old DBA/2J mice; [9]
  Intraocular Pressure Decrease: 16.7%
Old DBA/2J mice
  Reduction of intraocular pressure: able to significantly reduce the intraocular pressure
[1]
  Activity compared with the compounds of the invention: lower than that of the compounds of the invention
  Inhibition of the contractions induced by the electric stimulus: able to significantly inhibit the contractions

## Cc1cc2c(s1)-c1c(c(C(=O)NC3C4(C)CCC(C4)C3(C)C)nn1-c1ccc(Cl)cc1Cl)C2 (centres unmarked) [Compound (XD), N-fenchyl-1-(2′,4′-dichlorophenyl)-6-methyl-1,4-dihydro-thieno[3′,2′:4,5]cyclopenta[1,2-c]pyrazol-3-carboxamide]
CB1 receptors
  Ki: 43.3 ± 5.5 nM
CB2 receptors
  Ki: 15 ± 3.2 nM
Old DBA/2J mice; [2]
  Intraocular Pressure Decrease: 3.0%
Old DBA/2J mice; [3]
  Intraocular Pressure Decrease: 2.0%
Old DBA/2J mice; [4]
  Intraocular Pressure Decrease: 0.5%
Old DBA/2J mice; [5]
  Intraocular Pressure Decrease: 1.0%
Old DBA/2J mice; [6]
  Intraocular Pressure Decrease: 16.6%
Old DBA/2J mice; [7]
  Intraocular Pressure Decrease: 14.0%
Old DBA/2J mice; [8]
  Intraocular Pressure Decrease: 11.2%
Old DBA/2J mice; [9]
  Intraocular Pressure Decrease: 11.1%
Old DBA/2J mice
  Reduction of intraocular pressure: able to significantly reduce the intraocular pressure
[1]
  Activity compared with the compounds of the invention: lower than that of the compounds of the invention
  Inhibition of the contractions induced by the electric stimulus: able to significantly inhibit the contractions

## Cc1cc2c(s1)-c1c(c(C(=O)NCC3CCC4CC3C4(C)C)nn1-c1ccc(F)cc1F)C2 (centres unmarked) [Example 3.2, N-myrtanyl-1-(2′,4′-difluorophenyl)-6-methyl-1,4-dihydrothieno[3′,2′:4,5]cyclopenta[1,2-c]pyrazol-3-carboxamide]
CB1 receptors
  Ki: 22.3 ± 25 nM
CB2 receptors
  Ki: 5.8 ± 1 nM

## CC1(C)C2CCC(CNC(=O)c3nn(-c4ccc(Cl)cc4Cl)c4c3CCc3sc(-c5ccccc5)cc3-4)C1C2 (centres unmarked) [Example 3.6, N-myrtanyl-1-(2′,4′-dichlorophenyl)-7-phenyl-4,5-dihydro-1H-thieno[2,3-g]indazol-3-carboxamide]
CB1 receptors
  Ki: 86.4 ± 20 nM
CB2 receptors
  Ki: 4350 ± 251 nM

## Cc1csc2c1Cc1c(C(=O)NCC3CCC4CC3C4(C)C)nn(-c3ccc(Cl)cc3Cl)c1-2 (centres unmarked) [Example 3.7, N-myrtanyl-5-methyl-1-(2′,4′-dichlorophenyl)-1,4-dihydro-thieno[3′,2′:4,5]cyclopenta[1,2-c]pyrazol-3-carboxamide]
CB1 receptors
  Ki: 919 ± 226 nM
CB2 receptors
  Ki: 4.5 ± 0.8 nM
other
  melting point: 112 to 113 °C

## Cc1cc2c(s1)-c1c(c(C(=O)NCC3CCC4CC3C4(C)C)nn1-c1ccc(Cl)cc1Cl)C2 (centres unmarked) [Example 3.8, N-myrtanyl-1-(2′,4′-dichlorophenyl)-6-methyl-1,4-dihydro-thieno[3′,2′:4,5]cyclopenta[1,2-c]pyrazole-3-carboxamide]
CB1 receptors
  Ki: 400 ± 71 nM
CB2 receptors
  Ki: 30.6 ± 7.2 nM

## CC1(C)C2CCC(CNC(=O)c3nn(-c4ccc(F)cc4F)c4c3Cc3cc(Br)sc3-4)C1C2 (centres unmarked) [Example 3.12, N-myrtanyl-6-bromo-1-(2′,4′-difluorophenyl)-1,4-dihydro-thieno[3′,2′:4,5]cyclopenta[1,2-c]pyrazole-3-carboxamide]
CB1 receptors
  Ki: 160 ± 2.5 nM
CB2 receptors
  Ki: 9.3 ± 1.5 nM

## Cc1cc2c(s1)-c1c(c(C(=O)CC3CCCCC3)nn1-c1ccc(Cl)cc1Cl)C2 [Example 3.15, 1-(2′,4′-dichlorophenyl)-6-methyl-3-(1-oxo-2-cyclohexyleth-1-yl)-1,4-dihydro-thieno[3′,2′:4,5]cyclopenta[1,2-c]pyrazole]
CB1 receptors
  Ki: 720 ± 139 nM
CB2 receptors
  Ki: 5.4 ± 1.4 nM

## Cc1c(C(=O)NN2CCCCC2)nn(-c2ccc(Cl)cc2Cl)c1-c1ccc(Cl)cc1 [SR141716A]
patients; patients with metabolic syndrome and/or dyslipidemia
  Reduction of weight and metabolic and/or cardiovascular risk factors: effective in reducing both weight and metabolic and/or cardiovascular risk factors
patients; patients with type 2 diabetes
  Reduction of metabolic and/or cardiovascular risk factors: effectiveness of Rimonabant in reducing metabolic and/or cardiovascular risk factors has been shown
